In brackets after ≈: the same amount, converted by molar mass. Read-outs that look alike come from different tables or passages of the source.
Legend:
Assay type in all cases: cell-based
wild-type E. coli A-1261 = assay: MIC against wild-type E. coli A-1261 with or without alkaline phosphatase or esterase; conditions: Escherichia coli
Description: Minimal Inhibitory Concentrations (MICs; mg/L) were determined in cation-adjusted Mueller-Hinton Broth by a microdilution method following the description given in “Methods for Dilution Antimicrobial Susceptibility Tests for Bacteria that Grow Aerobically”, Approved standard, 7th ed., Clinical and Laboratory Standards Institute (CLSI) Document M7-A7, Wayne, Pa., USA (2006). The compounds of Examples 48 and 49 were tested against wild-type E. coli A-1261 in the absence of alkaline phosphatase or esterase, in the presence of an alkaline phosphatase and in the presence of an esterase. The corresponding antibacterial test results are given in Table 2 hereafter (MICs in mg/L).

[1] = test system: Acinetobacter baumannii T6474; assay: Bacterial growth minimal inhibitory concentration (microdilution, CLSI M7-A7); conditions: multiply-resistant strain (in particular quinolone-resistant), cation-adjusted Mueller-Hinton Broth; for MIC: Acinetobacter baumannii, T6474
Description: (§1) Minimal Inhibitory Concentrations (MICs; mg/L) were determined in cation-adjusted Mueller-Hinton Broth by a microdilution method following the description given in “Methods for Dilution Antimicrobial Susceptibility Tests for Bacteria that Grow Aerobically”, Approved standard, 7th ed., Clinical and Laboratory Standards Institute (CLSI) Document M7-A7, Wayne, Pa., USA (2006).
(§2) All Example compounds were tested against several Gram-positive and Gram-negative bacteria. […] K. pneumoniae A-651 and Acinetobacter baumannii T6474 are multiply-resistant strains (in particular quinolone-resistant), while E. coli ATCC25922 and P. aeruginosa ATCC27853 are quinolone-sensitive strains.

E. coli ATCC25922 = assay: as above; conditions: quinolone-sensitive strain, cation-adjusted Mueller-Hinton Broth; for MIC: Escherichia coli, ATCC25922
Description: as §1, §2

K. pneumoniae A-651 = assay: as above; conditions: multiply-resistant strain (in particular quinolone-resistant), cation-adjusted Mueller-Hinton Broth; for MIC: Klebsiella pneumoniae, A651
Description: as §1, §2

P. aeruginosa ATCC27853 = assay: as above; conditions: quinolone-sensitive strain, cation-adjusted Mueller-Hinton Broth; for MIC: Pseudomonas aeruginosa, ATCC27853
Description: as §1, §2

[2] = read-out: MIC for E. coli A-1261 In the absence of alkaline phosphatase or esterase
[3] = read-out: MIC for E. coli A-1261 In the presence of an alkaline phosphatase (2 i.U./mL)
[4] = read-out: MIC for E. coli A-1261 In the presence of an esterase (10 i.U./mL)

Compound | MIC (wild-type E. coli A-1261; [2]) | MIC (wild-type E. coli A-1261; [3]) | MIC (wild-type E. coli A-1261; [4]) | MIC [1] | MIC (E. coli ATCC25922) | MIC (K. pneumoniae A-651) | MIC (P. aeruginosa ATCC27853) | MIC for A. Baumannii T6474 [1] | MIC for E. coli ATCC25922 (E. coli ATCC25922) | MIC for K. Pneumoniae A-651 (K. pneumoniae A-651) | MIC for P. aeruginosa ATCC27853 (P. aeruginosa ATCC27853)
C[C@@](CCn1ncc2cc(C#Cc3ccc(C4(COP(=O)(O)O)CC4)cc3)ccc21)(C(=O)NO)S(C)(=O)=O [Example 48, (R)-(1-(4-((1-(4-(hydroxyamino)-3-methyl-3-(methylsulfonyl)-4-oxobutyl)-1H-indazol-5-yl)ethynyl)phenyl)cyclopropyl)methyl dihydrogen phosphate] | 16 µg/mL | 1 µg/mL | 16 µg/mL |  |  |  |  |  |  |  | 
C[C@H](O)c1ccc(C#Cc2ccc3c(cnn3CC[C@](C)(C(=O)NO)S(C)(=O)=O)c2)cc1 [Example 23, (R)—N-hydroxy-4-(5-((4-((S)-1-hydroxyethyl)phenyl)ethynyl)-1H-indazol-1-yl)-2-methyl-2-(methylsulfonyl)butanamide] |  |  |  | 0.125 µg/mL (≈ 0.274 µM) | 0.125 µg/mL (≈ 0.274 µM) | 0.5 µg/mL (≈ 1.1 µM) | 1 µg/mL (≈ 2.2 µM) |  |  |  | 
C[C@@](CCn1ncc2cc(C#Cc3ccc([C@H](O)CO)cc3)ccc21)(C(=O)NO)S(C)(=O)=O [Example 22, (R)-4-(5-((4-((S)-1,2-dihydroxyethyl)phenyl)ethynyl)-1H-indazol-1-yl)-N-hydroxy-2-methyl-2-(methylsulfonyl)butanamide] |  |  |  | 0.5 µg/mL (≈ 1.06 µM) | 0.5 µg/mL (≈ 1.06 µM) | 1 µg/mL (≈ 2.12 µM) | 1 µg/mL (≈ 2.12 µM) |  |  |  | 
C[C@@](CCn1ncc2cc(C#Cc3ccc(OCCO)cc3)ccc21)(C(=O)NO)S(C)(=O)=O [Example 27, (R)—N-hydroxy-4-(5-((4-(2-hydroxyethoxy)phenyl)ethynyl)-1H-indazol-1-yl)-2-methyl-2-(methylsulfonyl)butanamide] |  |  |  | 0.125 µg/mL (≈ 0.265 µM) | 0.25 µg/mL (≈ 0.53 µM) | 0.5 µg/mL (≈ 1.06 µM) | 2 µg/mL (≈ 4.24 µM) |  |  |  | 
C[C@@](CCn1ncc2c(F)c(C#Cc3ccc(CCO)cc3)ccc21)(C(=O)NO)S(C)(=O)=O [Example 36, (R)-4-(4-fluoro-5-((4-(2-hydroxyethyl)phenyl)ethynyl)-1H-indazol-1-yl)-N-hydroxy-2-methyl-2-(methylsulfonyl)butanamide] |  |  |  | ≤ 0.063 µg/mL | ≤ 0.063 µg/mL | 0.125 µg/mL (≈ 0.264 µM) | 1 µg/mL (≈ 2.11 µM) |  |  |  | 
C[C@@](CCn1ncc2cc(C#CC#C[C@@H]3C[C@@H](O)[C@@H](O)C3)ccc21)(C(=O)NO)S(C)(=O)=O [Example 51, (R)-4-(5-(((1s,3R,4S)-3,4-dihydroxycyclopentyl)buta-1,3-diyn-1-yl)-1H-indazol-1-yl)-N-hydroxy-2-methyl-2-(methylsulfonyl)butanamide] |  |  |  |  |  |  |  | 4 µg/mL | 0.5 µg/mL | 1 µg/mL | 1 µg/mL
C[C@@](CCn1ncc2cc(C#CC#CC3(CO)CC3)ccc21)(C(=O)NO)S(C)(=O)=O [Example 34, (R)—N-hydroxy-4-(5-((1-(hydroxymethyl)cyclopropyl)buta-1,3-diyn-1-yl)-1H-indazol-1-yl)-2-methyl-2-(methylsulfonyl)butanamide] |  |  |  | 16 µg/mL (≈ 37.3 µM) | 0.25 µg/mL (≈ 0.582 µM) | 0.5 µg/mL (≈ 1.16 µM) | 1 µg/mL (≈ 2.33 µM) |  |  |  | 
C[C@@](CCn1ccc2cc(C#Cc3ccc(C4(CO)CC4)cc3)ccc21)(C(=O)NO)S(C)(=O)=O [Example 25, (R)—N-hydroxy-4-(5-((4-(1-(hydroxymethyl)cyclopropyl)phenyl)ethynyl)-1H-indol-1-yl)-2-methyl-2-(methylsulfonyl)butanamide] |  |  |  | 0.5 µg/mL (≈ 1.04 µM) | 0.25 µg/mL (≈ 0.52 µM) | 0.5 µg/mL (≈ 1.04 µM) | 2 µg/mL (≈ 4.16 µM) |  |  |  | 
CN(C)CC(=O)OCC1(c2ccc(C#Cc3ccc4c(cnn4CC[C@](C)(C(=O)NO)S(C)(=O)=O)c3)cc2)CC1.O=CO [Example 49, (R)-(1-(4-((1-(4-(hydroxyamino)-3-methyl-3-(methylsulfonyl)-4-oxobutyl)-1H-indazol-5-yl)ethynyl)phenyl)cyclopropyl)methyl dimethylglycinate formate] | 1 µg/mL | 1 µg/mL | 0.125 µg/mL | 2 µg/mL | 1 µg/mL | 2 µg/mL | 16 µg/mL |  |  |  | 
C[C@@](CCn1ncc2cc(C#CC#CC34CC(CO)(C3)C4)ccc21)(C(=O)NO)S(C)(=O)=O [Example 53, (R)—N-hydroxy-4-(5-((3-(hydroxymethyl)bicyclo[1.1.1]pentan-1-yl)buta-1,3-diyn-1-yl)-1H-indazol-1-yl)-2-methyl-2-(methylsulfonyl)butanamide] |  |  |  | 1 µg/mL (≈ 2.2 µM) | 0.125 µg/mL (≈ 0.274 µM) | 0.25 µg/mL (≈ 0.549 µM) | 1 µg/mL (≈ 2.2 µM) |  |  |  | 
C[C@@](CCn1ncc2cc(C#CC#C[C@H]3C[C@@H]3CO)ccc21)(C(=O)NO)S(C)(=O)=O [Example 26, (R)—N-hydroxy-4-(5-(((1S,2S)-2-(hydroxymethyl)cyclopropyl)buta-1,3-diyn-1-yl)-1H-indazol-1-yl)-2-methyl-2-(methylsulfonyl)butanamide] |  |  |  | 2 µg/mL (≈ 4.66 µM) | ≤ 0.063 µg/mL | 0.125 µg/mL (≈ 0.291 µM) | 0.5 µg/mL (≈ 1.16 µM) |  |  |  | 
CSc1ccc(-c2ccc3c(cnn3CC[C@](C)(C(=O)NO)S(C)(=O)=O)c2)c(F)c1 [Example 1, (R)-4-(5-(2-fluoro-4-(methylthio)phenyl)-1H-indazol-1-yl)-N-hydroxy-2-methyl-2-(methylsulfonyl)butanamide] |  |  |  | 16 µg/mL (≈ 35.4 µM) | ≤ 0.063 µg/mL | 0.25 µg/mL (≈ 0.554 µM) | 4 µg/mL (≈ 8.86 µM) |  |  |  | 
(R)—N-hydroxy-4-(5-((3-hydroxythietan-3-yl)buta-1,3-diyn-1-yl)-1H-indol-1-yl)-2-methyl-2-(methylsulfonyl)butanamide [Example 32] |  |  |  |  |  |  |  | 16 µg/mL | 0.125 µg/mL | 0.25 µg/mL | 2 µg/mL
CC(CCn1ncc2cc(/C=C/c3ccccc3)ccc21)(C(=O)NO)S(C)(=O)=O (racemic) [RE3, (RS)-(E)-N-hydroxy-2-methyl-2-(methylsulfonyl)-4-(5-styryl-1H-indazol-1-yl)butanamide] |  |  |  | 0.25 µg/mL (≈ 0.605 µM) | 0.25 µg/mL (≈ 0.605 µM) | 1 µg/mL (≈ 2.42 µM) | 16 µg/mL (≈ 38.7 µM) |  |  |  | 
C[C@@](CCn1ccc2cc(C#Cc3ccc(CO)cc3)ccc21)(C(=O)NO)S(C)(=O)=O [Example 9, (R)—N-hydroxy-4-(5-((4-(hydroxymethyl)phenyl)ethynyl)-1H-indol-1-yl)-2-methyl-2-(methylsulfonyl)butanamide] |  |  |  | 0.125 µg/mL (≈ 0.284 µM) | ≤ 0.063 µg/mL | 0.125 µg/mL (≈ 0.284 µM) | 1 µg/mL (≈ 2.27 µM) |  |  |  | 
CC(CCn1ccc2cc(-c3ccc(-n4nccn4)cc3)ccc21)(C(=O)NO)S(C)(=O)=O.O=CO (racemic) [RE8, (RS)-4-(5-(4-(2H-1,2,3-triazol-2-yl)phenyl)-1H-indol-1-yl)-N-hydroxy-2-methyl-2-(methylsulfonyl)butanamide formate] |  |  |  | 0.5 µg/mL | 0.25 µg/mL | ≤ 0.063 µg/mL | 8 µg/mL |  |  |  | 
C[C@@](CCn1ccc2cc(C#Cc3ccc(C4(O)COC4)cc3)ccc21)(C(=O)NO)S(C)(=O)=O [Example 10, (R)—N-hydroxy-4-(5-((4-(3-hydroxyoxetan-3-yl)phenyl)ethynyl)-1H-indol-1-yl)-2-methyl-2-(methylsulfonyl)butanamide] |  |  |  | 0.125 µg/mL (≈ 0.259 µM) | 0.125 µg/mL (≈ 0.259 µM) | 0.25 µg/mL (≈ 0.518 µM) | 1 µg/mL (≈ 2.07 µM) |  |  |  | 
C[C@@H](O)c1ccc(C#Cc2ccc3c(cnn3CC[C@](C)(C(=O)NO)S(C)(=O)=O)c2)cc1.Cl [Example 16, (R)—N-hydroxy-4-(5-((4-((R)-1-hydroxyethyl)phenyl)ethynyl)-1H-indazol-1-yl)-2-methyl-2-(methylsulfonyl)butanamide hydrochloride] |  |  |  | 0.25 µg/mL | ≤ 0.063 µg/mL | 0.125 µg/mL | 1 µg/mL |  |  |  | 
C[C@@](CCn1ccc2cc(C#Cc3ccc([C@H]4C[C@@H]4CO)cc3)ccc21)(C(=O)NO)S(C)(=O)=O [Example 33, (R)—N-hydroxy-4-(5-((4-((1S,2S)-2-(hydroxymethyl)cyclopropyl)phenyl)ethynyl)-1H-indol-1-yl)-2-methyl-2-(methylsulfonyl)butanamide] |  |  |  | 0.125 µg/mL (≈ 0.26 µM) | 0.125 µg/mL (≈ 0.26 µM) | 0.25 µg/mL (≈ 0.52 µM) | 2 µg/mL (≈ 4.16 µM) |  |  |  | 
